Patent US20240100025A1, “Materials and Methods for Treating Viral and Other Medical Conditions” (Biotronik AG, priority 2020, published 2024)

Key:
[1] = Novartis everolimus study, rats; cited from earlier work
[2] = oral; cited from earlier work
Hantavirus = conditions: 0.05 μM, lowest concentration studied; cited from earlier work

CO[C@H]1C[C@@H]2CC[C@@H](C)[C@@](O)(O2)C(=O)C(=O)N2CCCC[C@H]2C(=O)O[C@H]([C@H](C)C[C@@H]2CC[C@@H](OCCO)[C@H](OC)C2)CC(=O)[C@H](C)/C=C(\C)[C@@H](O)[C@@H](OC)C(=O)[C@H](C)C[C@H](C)/C=C/C=C/C=C/1C [everolimus]
tissue distribution, highest drug concentrations [1]: highest drug concentrations were in the gastrointestinal tract and liver

CO[C@H]1C[C@@H]2CC[C@@H](C)[C@@](O)(O2)C(=O)C(=O)N2CCCC[C@H]2C(=O)O[C@H]([C@H](C)C[C@@H]2CC[C@@H](O)[C@H](OC)C2)CC(=O)[C@H](C)/C=C(\C)[C@@H](O)[C@@H](OC)C(=O)[C@H](C)C[C@H](C)/C=C/C=C/C=C/1C [sirolimus, Rapamycin]
fraction unbound (Protein binding): 0.049
bioavailability [2]: ~14%

CO[C@H]1C[C@@H]2CC[C@@H](C)[C@@](O)(O2)C(=O)C(=O)N2CCCC[C@H]2C(=O)O[C@H]([C@H](C)C[C@@H]2CC[C@@H](OC(=O)C(C)(CO)CO)[C@H](OC)C2)CC(=O)[C@H](C)/C=C(\C)[C@@H](O)[C@@H](OC)C(=O)[C@H](C)C[C@H](C)/C=C/C=C/C=C/1C [temsirolimus]
reduction in virus titers (Hantavirus): 50%
